The source of these data is ChEMBL document CHEMBL3526076, “Species-dependent and receptor-selective action of bilobalide on the function of constitutive androstane receptor and pregnane X receptor” (Drug Metab Dispos, 2012).

Data set [1] concerns CAR mRNA. Briefly: Effect on CAR mRNA expression in rat hepatocytes at 3 uM by RT-PCR analysis relative to control. It is filed as ADME, cell-based, Hepatocyte. The note with it: read-out: FC.
Data set [2] deals with T1, Nuclear receptor subfamily 1 group I member 3 (Rattus norvegicus, UniProt Q9QUS1).
T1 sequence (Q9QUS1 whole entry): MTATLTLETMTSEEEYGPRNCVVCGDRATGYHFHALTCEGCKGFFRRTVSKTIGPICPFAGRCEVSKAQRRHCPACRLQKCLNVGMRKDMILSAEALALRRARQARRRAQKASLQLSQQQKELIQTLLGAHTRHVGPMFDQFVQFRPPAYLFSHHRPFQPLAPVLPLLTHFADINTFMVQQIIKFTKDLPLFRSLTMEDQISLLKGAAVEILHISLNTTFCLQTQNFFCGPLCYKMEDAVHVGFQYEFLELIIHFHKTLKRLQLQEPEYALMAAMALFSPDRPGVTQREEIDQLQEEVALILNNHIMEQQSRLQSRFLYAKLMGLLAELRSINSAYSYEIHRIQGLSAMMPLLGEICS
In words: Activation of CAR in rat hepatocytes assessed as increase in CYP2B-mediated benzyloxyresorufin O-dealkylation at 10 uM after 24 hrs by spectrofluorometric analysis relative to phenobarbital. It is filed as ADME, cell-based, Hepatocyte.

Data set [3] addresses T1, Nuclear receptor subfamily 1 group I member 3. In words: Activation of rat CAR expressed in rat hepatocytes coexpressing CYP2B1 at 30 uM after 24 hrs by dual luciferase reporter gene assay relative to phenobarbital. It is filed as ADME, cell-based, Hepatocyte. On the technique in general: In a reporter assay the amount or activity of a reporter protein is the signal.
Data set [4] deals with T2, Nuclear receptor subfamily 1 group I member 2 (Homo sapiens, UniProt O75469).
T2 sequence (O75469 whole entry): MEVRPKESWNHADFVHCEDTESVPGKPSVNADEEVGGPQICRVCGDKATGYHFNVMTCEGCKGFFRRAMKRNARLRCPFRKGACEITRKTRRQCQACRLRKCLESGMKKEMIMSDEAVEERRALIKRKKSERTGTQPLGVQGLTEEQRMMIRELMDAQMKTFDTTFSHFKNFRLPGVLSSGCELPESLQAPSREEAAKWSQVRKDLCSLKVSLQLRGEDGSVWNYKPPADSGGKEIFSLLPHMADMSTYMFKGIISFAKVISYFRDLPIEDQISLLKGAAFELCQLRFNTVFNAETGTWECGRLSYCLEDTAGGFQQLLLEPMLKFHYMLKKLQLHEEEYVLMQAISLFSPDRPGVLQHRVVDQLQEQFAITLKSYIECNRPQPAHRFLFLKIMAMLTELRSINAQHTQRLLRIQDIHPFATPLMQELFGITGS
Briefly: Activation of PXR in human Hu1108 hepatocytes assessed as effect on CYP3A4 mRNA expression at 10 to 50 uM after 24 hrs by RT-PCR analysis. Type of data set: ADME, cell-based, Hepatocyte.

Data set [5] addresses T3, Nuclear receptor subfamily 1 group I member 2 (Rattus norvegicus, UniProt Q9R1A7).
T3 sequence (Q9R1A7 whole entry): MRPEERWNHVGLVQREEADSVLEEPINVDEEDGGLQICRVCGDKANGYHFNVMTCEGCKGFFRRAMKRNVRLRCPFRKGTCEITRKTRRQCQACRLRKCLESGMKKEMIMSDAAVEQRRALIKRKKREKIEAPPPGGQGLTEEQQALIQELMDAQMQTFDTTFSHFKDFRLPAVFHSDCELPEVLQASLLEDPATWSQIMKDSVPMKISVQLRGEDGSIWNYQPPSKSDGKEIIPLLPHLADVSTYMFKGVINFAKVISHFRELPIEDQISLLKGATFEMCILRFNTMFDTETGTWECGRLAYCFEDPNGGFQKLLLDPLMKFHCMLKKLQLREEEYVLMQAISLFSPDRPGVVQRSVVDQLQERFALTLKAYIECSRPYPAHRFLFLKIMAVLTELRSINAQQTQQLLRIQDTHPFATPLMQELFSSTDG
In words: Antagonist activity at rat PXR expressed in human HepG2 cells coexpressing CYP3A4 assessed as inhibition of PCN-induced receptor activation up to 100 uM after 24 hrs by dual luciferase reporter gene assay. It is filed as ADME, cell-based. The note with it: hepg2, 24 h.

The target of data set [6] is T2, Nuclear receptor subfamily 1 group I member 2. Briefly: Activation of human PXR expressed in rat hepatocytes coexpressing CYP3A4 at 100 uM after 24 hrs by dual luciferase reporter gene assay. It is filed as ADME, cell-based, Hepatocyte.
Data set [7] deals with T4, Nuclear receptor subfamily 1 group I member 3 (Homo sapiens, UniProt Q14994).
T4 sequence (Q14994 whole entry): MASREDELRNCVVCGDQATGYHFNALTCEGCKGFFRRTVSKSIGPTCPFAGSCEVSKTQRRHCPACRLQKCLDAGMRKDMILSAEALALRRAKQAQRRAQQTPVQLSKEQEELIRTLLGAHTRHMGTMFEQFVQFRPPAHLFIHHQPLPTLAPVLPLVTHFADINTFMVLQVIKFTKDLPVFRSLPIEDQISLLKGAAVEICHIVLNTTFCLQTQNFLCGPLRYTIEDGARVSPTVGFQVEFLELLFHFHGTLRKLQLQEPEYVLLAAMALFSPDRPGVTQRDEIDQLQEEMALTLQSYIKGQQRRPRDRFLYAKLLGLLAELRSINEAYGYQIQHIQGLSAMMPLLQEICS
In words: Activation of human CAR expressed in rat hepatocytes coexpressing CYP2B1 at 100 uM after 24 hrs by dual luciferase reporter gene assay. It is filed as ADME, cell-based, Hepatocyte.

Data set [8] concerns CAR mRNA. Briefly: Effect on CAR mRNA expression in human hepatocytes at 25 uM by RT-PCR analysis relative to control. It is filed as ADME, cell-based, Hepatocyte. The note with it: read-out: FC.
In data set [9] the target is T1, Nuclear receptor subfamily 1 group I member 3. In words: Activation of CAR in rat hepatocytes assessed as increase in CYP2B-mediated benzyloxyresorufin O-dealkylation at 3 uM after 24 hrs by spectrofluorometric analysis relative to phenobarbital. It is filed as ADME, cell-based, Hepatocyte.
In a further data set the test system is Hepatocyte. Briefly: Cytotoxicity against rat hepatocytes at 1 to 100 uM after 24 hrs by lactate dehydrogenase assay. Type of data set: cell-based.
Data set [10] concerns PXR mRNA. In words: Effect on PXR mRNA expression in human hepatocytes at 50 uM by RT-PCR analysis relative to control. It is filed as ADME, cell-based, Hepatocyte. The note with it: read-out: FC.
Data set [11] has as its target T4, Nuclear receptor subfamily 1 group I member 3. Briefly: Activation of human CAR expressed in human HepG2 cells coexpressing CYP2B6 at 0.1 to 100 uM after 24 hrs by dual luciferase reporter gene assay. Type of data set: ADME, cell-based. To be noted: hepg2, 24 h.
The target in data set [12] is T1, Nuclear receptor subfamily 1 group I member 3. Briefly: Activation of CAR in rat hepatocytes assessed as upregulation of CYP2B1 mRNA expression at 3 uM after 24 hrs by RT-PCR analysis relative to phenobarbital. Type of data set: ADME, cell-based, Hepatocyte.
The test system of data set [13] is PXR mRNA. In words: Effect on PXR mRNA expression in human hepatocytes at 10 uM by RT-PCR analysis relative to control. Type of data set: ADME, cell-based, Hepatocyte. The note with it: read-out: FC.
Data set [14] has as its target T3, Nuclear receptor subfamily 1 group I member 2. Briefly: Activation of PXR in rat hepatocytes assessed as upregulation of CYP3A23 mRNA expression at 1 to 30 uM after 24 hrs by RT-PCR analysis. Type of data set: ADME, cell-based, Hepatocyte.
For data set [15], the system named is CAR mRNA. In words: Effect on CAR mRNA expression in human hepatocytes at 50 uM by RT-PCR analysis relative to control. Type of data set: ADME, cell-based, Hepatocyte. To be noted: read-out: FC.
For data set [16], the target named is T1, Nuclear receptor subfamily 1 group I member 3. Briefly: Activation of CAR in rat hepatocytes assessed as upregulation of CYP2B1 mRNA expression at 10 uM after 24 hrs by RT-PCR analysis relative to phenobarbital. Type of data set: ADME, cell-based, Hepatocyte.
Data set [17] deals with PXR mRNA. Briefly: Effect on PXR mRNA expression in rat hepatocytes at 3 uM by RT-PCR analysis relative to control. To be noted: read-out: FC. It is filed as ADME, cell-based, Hepatocyte.
The target in data set [18] is T3, Nuclear receptor subfamily 1 group I member 2. Briefly: Activation of rat PXR expressed in human HepG2 cells coexpressing CYP3A4 at 0.1 to 100 uM after 24 hrs by dual luciferase reporter gene assay. It is filed as ADME, cell-based. To be noted: hepg2, 24 h.

Structures are written as SMILES.

Regarding `CC(C)(C)[C@]1(O)C[C@@H]2OC(=O)C[C@@]23C(=O)O[C@@H]2OC(=O)[C@H](O)[C@]213`, the figures for the fold induction at 3 µM in the data set on CAR mRNA [1] and with PXR mRNA [17] were 1.3 and 1, respectively. Besides, the Activity is recorded as 64% in [2]; 189% in data set [3]; “Not Active” in data set [4]; “Not Active” in [6]; “Not Active” in data set [7]; 44% in [9]. Besides, the Activity result with Hepatocyte was “Non-toxic”; in [11], “Not Active”; in data set [12], 6%; in data set [14], “Not Active”; in data set [16], 18%; in data set [18], “Not Active”. Also, the “inhibition (INH)” value in data set [5] is “Not Active”. In the data set on CAR mRNA [8], the fold induction at 25 µM came out at 1.4. The fold induction at 50 µM in the data set with PXR mRNA [10] is 0.4; with CAR mRNA [15], 1.4. In addition, the fold induction at 10 µM with PXR mRNA [13] worked out at 0.7.
